Reference: patent US20040029167A1, “Inducible COMT_II promoter, chimeric gene containing same and plants transformed therewith” (priority 1999, published 2004)

System: COMT II (−1215 to +24)/GUS
Test: Induction of GUS activity in COMT II (−1215 to +24)/GUS transgenic plants by elicitors and chemical products
Assay type: in vivo, Nicotiana tabacum cv. Samsun NN
Conditions: for GUS Activity: leaves 16 h after infiltration, SA 1 mM, INA 1 mM, chitins 100 μg/ml, glucans 200 μg/ml, pectins 200 μg/ml; for Induction %: nontreated control C = 100, 16 h after infiltration, concentrations as for GUS Activity column
Method: The transgenic plants containing the construct COMT II (−1215 to +24)/GUS were treated with various chemical products, regulators of defense reactions, with methyl-2,6-dichloroisonicotinic (INA) and salicylic acid (SA), with fungal elicitors such as glucans or fragments of chitin and an elicitor of plant origin, such as pectin. The GUS activity is expressed in pmol MU/min.mg. The control (C) corresponds to the basal GUS activity in the nontreated transformed plants.
The induction of the 1239 bp promoter was studied during injury or after treatment with methyl jasmonate (molecule which plays a role in defense response signaling during injury) or with benzothiadiazole (BTH) (chemical SAR-inducer). The GUS activity is measured 16 h after treatment.
The COMT II and GUS activities were assayed on 100 mg of tissues. The tissue is homogenized in a 100 mM sodium phosphate buffer at pH 7.5 containing 10 mM of DTT, after addition of polyclar AT (Serva) and of quartz. The crude extracts are clarified by centrifugation and by filtration on glass wool. The GUS and COMT II activities are measured on the same crude extracts. For measuring the COMT II activity, an aliquot of the protein extract is added to 1 ml of phosphate buffer comprising 100 μM of catechol and 50 μM of tritiated S-adenosyl-L-methionine (1.5×10^5 cpm/ml) and incubated for 3 hours at 37° C. The reaction is stopped by adding 100 μl of 9M sulfuric acid. The radioactive reaction product, […], is extracted with 5 ml of an NA scintillation solution (Beckman) and the radioactivity is counted on a Beckman LS 9000 machine. The fluorimetric measurement of the GUS activity is performed on the same samples, according to the procedure of Jefferson et al. (1987). The protein content is determined by the Bradford method (1976) using Biorad reagents.
Treatment with an elicitor: Solutions are infiltrated, using a syringe equipped with a fine needle, in the mesophyl of the leaves. The infiltrated regions are delimited with a felt-tip marker. The infiltrated regions are harvested 16 hours after treatment. The leaves are treated with a solution of β-megaspermine, a protein elicitor purified from a Phytophthora megasperma culture medium (Kauffmann et al., 1993), or of oligosaccharides such as chitin oligomers (100 μg/ml), glucan fragments (200 μg/ml) and pectin fragments (200 μg/ml). The control plants are infiltrated with water.
Chemical treatments: (1) Solutions of SA (1 mM) or of INA (50 mM) are infiltrated into tobacco leaves using.the protocol described for the treatment with elicitors. (2) Under identical culture conditions, solutions of SA (10 mM), INA (1 mM) or BTH (50 mM) are sprayed onto the transgenic plants. The tissues are recovered 16 hours after treatment. Plants treated with water are used as a control. (3) Seven-week-old plants or leaves of vitroplants kept alive on water are transferred into transparent, hermetically sealed dishes and subjected to an atmosphere of 3.5 mM of MeJa (Serva). The tissues are removed at various times after treatment. The control plants are placed in the same dishes without MeJa.

[1] = 1239 bp promoter, 16 h after treatment

| SMILES | induction factors [1] | Induction of the GUS activity % (1239 bp promoter, 16 h after treatment, nontreated plants C = 100) | GUS Activity | Induction % |
| --- | --- | --- | --- | --- |
| c1ccc2snnc2c1 [BTH, benzothiadiazole] | 2.5 | 250% | – | – |
| COC(=O)c1cc(Cl)nc(Cl)c1 [INA, methyl-2,6-dichloroisonicotinic] | – | – | 1,700 pmol MU/min.mg | 200% |
| CC/C=C\CC1C(=O)CCC1CC(=O)OC (stereo not shown) [Methyl jasmonate, methyl jasmonate] | 14.5 | – | – | – |
| O=C(O)c1ccccc1O [SA, salicylic acid] | – | – | 1,200 pmol MU/min.mg | 200% |
